IC50 data for 22 compounds are collected here from patent US20260365654A1, “PRMT5 INHIBITOR AND USE THEREOF” (SHANGHAI APEIRON THERAPEUTICS COMPANY LIMITED, priority 2022, published 2026).

The subject of assay [1] is HCT-116 wild-type cells. The assay can be described thus: Proliferation inhibitory activity of compound on HCT-116 Wild Type cells. It is filed as cell-based. Particulars: Cell-Titer Glo, 8 d, 0-10,000 nM, 2-fold dilution, 10 points, 0.1% DMSO. On the procedure: Test case 2: Test on proliferation inhibitory activity of compound on HCT-116 Wild Type cells Materials and cells: HCT-116 wild-type cells were purchased from Botron Healthcare (China); RPMI-1640 medium, fetal bovine serum and penicillin-streptomycin were purchased from Thermo Fisher (United States); 384-well plates were purchased from PerkinElmer (United States); Cell-Titer Glo kit was purchased from Promega (United States).
Cell culture: HCT-116 wild-type cells were cultured with a RPMI-1640 medium containing […]+1% penicillin-streptomycin at 37 °C in 5% CO2. Only cells in the logarithmic growth phase could be used for the test.
Test of cell proliferation activity: Cell-Titer Glo kit was used to test the proliferation inhibitory activity of the compound on HCT-116 wild-type cells. The cell concentration was adjusted, 40 μL per well was inoculated into a 384-well plate and incubated overnight at 37 °C in […]. 40 nL of the compound was added to each well to reach a final concentration of 0-10,000 nM (starting concentration 10,000 nM, 2-fold dilution, 10 points), and the cell plate with 0.1% DMSO content was incubated at 37 °C and […] for 8 d. 40 μL of Cell-Titer Glo reagent was added to test cell viability.

Assay [2] has as its system HCT-116 MTAP(−/−)deleted cells. In words: Inhibitory activity of compounds on the proliferation of HCT-116 MTAP(−/−)deleted cells. As to conditions: Cell-Titer Glo, 8 d, 0-10,000 nM, 3-fold dilution, 10 points, 0.1% DMSO. The assay is classed as cell-based. The text has this: Test case 1: Inhibitory activity of compounds on the proliferation of HCT-116 MTAP(−/−)deleted cells Materials and cells: HCT-116 MTAP(−/−)deleted cells were purchased from Botron Healthcare (China); RPMI-1640 medium, fetal bovine serum and penicillin-streptomycin were purchased from Thermo Fisher (United States); 384-well plates were purchased from PerkinElmer (United States); Cell-Titer Glo kit was purchased from Promega (United States).
Cell culture: HCT116 MTAP(−/−)deleted cells were cultured with RPMI 1640 medium containing 10% fetal bovine serum +1% penicillin-streptomycin at 37 °C in 5% CO2. Only cells in the logarithmic growth phase could be used for the test.
Test of inhibitory activity on cell proliferation: The Cell-Titer Glo kit was used to test the proliferation inhibitory activity of the compounds on HCT-116 MTAP(−/−)deleted cells. The cell concentration was adjusted, It was inoculated at 40 μL per well into a 384-well plate and incubated overnight at 37 °C in 5% CO2. 40 μL of the compound was added to each well to reach a final concentration of 0-10,000 nM (starting concentration 10,000 nM, 3-fold dilution, 10 points), and the cell plate with 0.1% DMSO content was incubated at 37 °C and 5% CO2 for 8 d. 40 μL of Cell-Titer Glo reagent was added to test cell viability.

Consider `Nc1nc2cc(Cl)c(C(=O)N3CCOCC3c3ccc(C(F)(F)F)cc3)cc2n2cncc12` (stereo in doubt) [Example 4A, (3R)-3-[4-(trifluoromethyl)phenyl]morpholin-4-yl 4-amino-7-chloro(10-hydroimidazo[1,5-a]quinoxalin-8-yl)one], for which the IC50 (commonly the concentration that gives 50% inhibition) amounted to 512 nM in assay [1] (Homo sapiens, 192 h) and 6.5 nM in assay [2] (Homo sapiens, 192 h).
For the compound `Nc1nc2cc(Cl)c(C(=O)N3CCOCC3c3ccc(C(F)(F)F)cc3)cc2n2cncc12` (stereo in doubt) [Example 4B, (3S)-3-[4-(trifluoromethyl)phenyl]morpholin-4-yl 4-amino-7-chloro(10-hydroimidazo[1,5-a]quinoxalin-8-yl)one], the half-maximal inhibitory concentration (IC50) in assay [1] (Homo sapiens, 192 h) is 6520 nM; in assay [2] (Homo sapiens, 192 h) it was 2780 nM.
For the compound `Nc1nc2ccc(C(=O)N3CCCC[C@@H]3c3ccc(F)cc3)cc2n2cccc12` [Example 1, (R)-(4-aminopyrrolo[1,2-a]quinoxalin-8-yl)(2-(4-fluorophenyl)piperidin-1-yl)methanone], the IC50 in assay [1] (Homo sapiens, 192 h) came out at 10800 nM; in assay [2] (Homo sapiens, 192 h), 3880 nM.
Regarding `Nc1nc2cc(Cl)c(C(=O)N3CCCC[C@@H]3c3ccc(F)cc3)cc2n2cncc12` [Example 6, (2R)-2-(4-fluorophenyl)piperidyl4-amino-7-chloro(10-hydroimidazo[1,5-a]quinoxalin-8-yl)one], the half-inhibitory concentration (IC50) in assay [1] (Homo sapiens, 192 h) is 2720 nM; in assay [2] (Homo sapiens, 192 h) it was 28.8 nM.
For `Nc1nc2cc(F)c(C(=O)N3CCCC[C@@H]3c3ccc(F)cc3)cc2n2cncc12` [Example 7, (R)-(4-amino-7-fluoroimidazo[1,5-a]quinoxalin-8-yl)(2-(4-fluorophenyl)piperidin-1-yl)methanone], the IC50 in assay [1] (Homo sapiens, 192 h) amounted to 1690 nM; in assay [2] (Homo sapiens, 192 h), 24.3 nM.
With `Nc1nc2cc(F)c(C(=O)N3CCC(c4ccc(C(F)(F)F)cn4)C3)cc2n2cncc12` (centres unmarked) [Example 8, (4-amino-7-fluorimidazo[1,5-a]quinoxalin-8-yl)(3-(5-(trifluoromethyl)pyridin-2-yl)pyrrolidin-1-yl)methanone], the IC50 in assay [1] (Homo sapiens, 192 h) is above 10000 nM; in assay [2] (Homo sapiens, 192 h), 396 nM.
In the same order, the values of `Nc1nc2cc(F)c(C(=O)N3CC(c4ccc(C(F)(F)F)cn4)C3)cc2n2cncc12` [Example 10] are above 10000 nM and 795 nM.
As to `C[C@@H]1COC[C@H](c2ccc(C(F)(F)F)cc2)N1C(=O)c1cc2c(cc1F)nc(N)c1cncn12` [Example 12, (4-amino-7-fluorimidazo[1,5-a]quinoxalin-8-yl)((3R,5S)-3-methyl-5-(4-(trifluoromethyl)phenyl)morpholinyl)methanone], the IC50 is 91.1 nM in assay [1] (Homo sapiens, 192 h) and 3.2 nM in assay [2] (Homo sapiens, 192 h).
On to `Nc1nc2cc(F)c(C(=O)N3CCCC(c4ccc(C(F)(F)F)cc4)C3)cc2n2cncc12` (centres unmarked) [Example 13, (4-amino-7-fluimidazo[1,5-a]quinoxalin-8-yl)(3-(4-(trifluoromethyl)phenyl)piperidin-1-yl)methanone], for which the IC50 in assay [1] (Homo sapiens, 192 h) amounted to 4180 nM; in assay [2] (Homo sapiens, 192 h), 458 nM.
Take `Nc1nc2cc(F)c(C(=O)N3CCC[C@H](c4ccc(C(F)(F)F)cc4)C3)cc2n2cncc12` [Example 13A]: the IC50 in assay [1] (Homo sapiens, 192 h) was above 10000 nM; in assay [2] (Homo sapiens, 192 h) it was 516 nM.
The like results for `Nc1nc2cc(F)c(C(=O)N3CCC[C@@H](c4ccc(C(F)(F)F)cc4)C3)cc2n2cncc12` [Example 13B] were, in that order, above 10000 nM and above 3000 nM.
In the case of `Nc1nc2ccc(C(=O)N3CCCC[C@@H]3c3ccc(F)cc3)cc2n2cncc12` [Example 14, (R)-(4-aminoimidazo[1,5-a]quinoxalin-8-yl)(2-(4-fluorophenyl)piperidin-1-yl)methanone], the IC50 was above 10000 nM in assay [1] (Homo sapiens, 192 h) and 671 nM in assay [2] (Homo sapiens, 192 h).
As to `Nc1nc2cc(F)c(C(=O)N3CCO[C@@H](c4ccc(C(F)(F)F)cc4)C3)cc2n2cncc12` [Example 15, (S)-(4-amino-7-fluoroimidazo[1,5-a]quinoxalin-8-yl)(2-(4-(trifluoromethyl)phenyl)morpholinyl)methanone], the IC50 in assay [1] (Homo sapiens, 192 h) was above 10000 nM; in assay [2] (Homo sapiens, 192 h) it was 933 nM.
As for `Nc1nc2cc(F)c(C(=O)N3CCC[C@@H]3c3ccc(C(F)(F)F)cc3)cc2n2cncc12` [Example 16, (R)-(4-amino-7-fluorimidazo[1,5-a]quinoxalin-8-yl)(2-(4-(trifluoromethyl)phenyl)pyrrolidin-1-yl)methanone], the IC50 in assay [1] (Homo sapiens, 192 h) is above 10000 nM; in assay [2] (Homo sapiens, 192 h), 1300 nM.
The like results for `Nc1nc2cc(F)c(C(=O)N3CCC[C@H]3c3ccc(C(F)(F)F)cc3)cc2n2cncc12` [Example 17, (S)-(4-amino-7-fluorimidazo[1,5-a]quinoxalin-8-yl)(2-(4-(trifluoromethyl)phenyl)pyrrolidin-1-yl)methanone] were, in that order, above 10000 nM and above 3000 nM.
The like results for `Nc1nc2ccc(C(=O)N3CCCCC3c3cnc4cccnc4c3)cc2n2cncc12` (centres unmarked) [Example 18] were, in that order, above 10000 nM and 1400 nM.
In the same order, the values of `Nc1nc2ccc(C(=O)N3CCCCC3c3ccc(Oc4ccc(F)cc4)cc3)cc2n2cncc12` (centres unmarked) [Example 19] are 6380 nM and 472 nM.
Turning to `Nc1nc2ccc(C(=O)N3CCCCC3c3ccc(C(F)(F)F)cn3)cc2n2cncc12` (centres unmarked) [Example 21], the half-inhibitory concentration (IC50) in assay [1] is above 10000 nM; in assay [2], 80.4 nM.
The like results for `Nc1nc2ccc(C(=O)N3CCCCC3c3ccc(OC(F)(F)F)cc3)cc2n2cncc12` (centres unmarked) [Example 22, (4-aminoimidazo[1,5-a]quinoxalin-8-yl)2-(4-(trifluoromethoxy)phenyl)piperidin-1-yl ketone] were, in that order, 8130 nM and 45.2 nM.
Regarding `Cn1ncc2cc(C3CCCCN3C(=O)c3ccc4nc(N)c5cncn5c4c3)cnc21` (centres unmarked) [Example 23, (4-aminoimidazo[1,5-a]quinoxalin-8-yl) 2-(1-methylpyrazolo[3,4-b]pyridin-5-yl)piperidin-1-methanone], the concentration for half-maximal inhibition (IC50) is above 10000 nM in assay [1] and 741 nM in assay [2].
On to `Nc1nc2ccc(C(=O)N3CCCCC3c3ccc4ccccc4n3)cc2n2cncc12` (centres unmarked) [Example 24], for which the 50% inhibitory concentration (IC50) in assay [1] (Homo sapiens, 192 h) is above 10000 nM; in assay [2] (Homo sapiens, 192 h), 242 nM.
As for “(4-amino-7-fluimidazo[1,5-a]quinoxalin-8-yl)2-(1-methylpyr azolo[3,4-b]pyridin-5-yl)piperidin-1-methanone [Example 20]”, the half-inhibitory concentration (IC50) in assay [1] was above 10000 nM; in assay [2] it was 83.3 nM.
